Experimental data as given in US20230293526A1, “METHOD FOR TREATING CANCER WITH A REVERSE TRANSCRIPTASE INHIBITOR” (PrimeFour Therapeutics, Inc., priority 2020, published 2023).

Legend:
Assay in all cases: Cell proliferation CellTiterGlo Ex.2
Format in all cases: cell-based
[1] = tested on: HCC 1569; conditions: Homo sapiens, HCC1569; HCC 1569 (Breast), 72 h
Method: (§1) A dose response relationship on cell proliferation was assessed for Compound 13 on 140 tumor cell lines. Briefly, compound treatment of cells started one day after seeding with a final DMSO concentration of 0.100, and was performed by nanodrop-dispensing using a Tecan Dispenser. 0.10% DMSO (solvent) and Staurosporine (10 μM) served as high control (10000 viability) and low control (000 viability), respectively. Compound 13 was tested at 10, 3, 1, 0.3, 0.1, 0.03, 0.01, and 0.003 μM.
(§2) Cells were cultured in the appropriate media. For the assays, cells were seeded in white cell culture-treated flat and clear bottom multiwell plates and incubated at 37° C. overnight before compound was added. After incubation for 72 h at 37° C. at 5% or 10% CO2 dependent on the medium, cell plates were equilibrated to room temperature for one hour, CellTiterGlo reagent (Promega) was added and luminescence was measured approximately an hour later using a luminometer.
(§3) Raw data were converted into percent cell viability relative to the high and low control, which were set to 10000 and 000, respectively.

[2] = tested on: SK-LU-1; conditions: Homo sapiens; SK-LU-1 (Lung), 72 h
Method: as §1, §2, §3

[3] = tested on: PC-9; conditions: Homo sapiens; PC-9 (Lung), 72 h
Method: as §1, §2, §3

[4] = tested on: U2OS; conditions: Homo sapiens; U2OS (Bone), 72 h
Method: as §1, §2, §3

[5] = tested on: OPM-2; conditions: Homo sapiens; OPM-2 (Blood), 72 h
Method: as §1, §2, §3

[6] = tested on: SW-1783; conditions: Homo sapiens, SW1783; SW-1783 (Brain), 72 h
Method: as §1, §2, §3

[7] = tested on: NCI-H1573; conditions: Homo sapiens; NCI-H1573 (Lung), 72 h
Method: as §1, §2, §3

[8] = tested on: H4; conditions: H4 (Brain), 72 h
Method: as §1, §2, §3

[9] = tested on: KARPAS 299; conditions: Homo sapiens; KARPAS 299 (Blood), 72 h
Method: as §1, §2, §3

[10] = tested on: HL-60; conditions: Homo sapiens; HL-60 (Blood), 72 h
Method: as §1, §2, §3

[11] = tested on: COV434; conditions: COV434 (Ovary), 72 h
Method: as §1, §2, §3

[12] = tested on: A498; conditions: Homo sapiens; A498 (Kidney), 72 h
Method: as §1, §2, §3

[13] = tested on: Calu-6; conditions: Homo sapiens; Calu-6 (Lung), 72 h
Method: as §1, §2, §3

[14] = tested on: P31/FUJ; conditions: Homo sapiens; P31/FUJ (Blood), 72 h
Method: as §1, §2, §3

[15] = tested on: HEC-1-B; conditions: Homo sapiens; HEC-1-B (Endometrium), 72 h
Method: as §1, §2, §3

[16] = tested on: Detroit562; conditions: Homo sapiens, Detroit 562; Detroit562 (Head/Neck), 72 h
Method: as §1, §2, §3

[17] = tested on: HCT116; conditions: Homo sapiens, HCT-116; HCT116 (Colon), 72 h
Method: as §1, §2, §3

[18] = tested on: MDA-MB-468; conditions: Homo sapiens; MDA-MB-468 (Breast), 72 h
Method: as §1, §2, §3

[19] = tested on: SCLC-21H; conditions: Homo sapiens; SCLC-21H (Lung), 72 h
Method: as §1, §2, §3

[20] = tested on: NCI-H292; conditions: Homo sapiens; NCI-H292 (Lung), 72 h
Method: as §1, §2, §3

[21] = tested on: SNU-1; conditions: Homo sapiens, SNU1; SNU-1 (Stomach), 72 h
Method: as §1, §2, §3

[22] = tested on: SJSA-1; conditions: Homo sapiens; SJSA-1 (Bone), 72 h
Method: as §1, §2, §3

[23] = tested on: OCI-LY19; conditions: Homo sapiens; OCI-LY19 (Blood), 72 h
Method: as §1, §2, §3

[24] = tested on: A2058; conditions: Homo sapiens; A2058 (Skin), 72 h
Method: as §1, §2, §3

[25] = tested on: A2780; conditions: Homo sapiens; A2780 (Ovary), 72 h
Method: as §1, §2, §3

[26] = tested on: H460; conditions: Homo sapiens, NCI-H460; H460 (Lung), 72 h
Method: as §1, §2, §3

[27] = tested on: SCH; conditions: SCH (Stomach), 72 h
Method: as §1, §2, §3

[28] = tested on: NCI-H2110; conditions: NCI-H2110 (Lung), 72 h
Method: as §1, §2, §3

[29] = tested on: 786-O; conditions: Homo sapiens, 786-0; 786-O (Kidney), 72 h
Method: as §1, §2, §3

[30] = tested on: U87MG; conditions: Homo sapiens, U-87 MG; U87MG (Brain), 72 h
Method: as §1, §2, §3

[31] = tested on: NCI-H2009; conditions: Homo sapiens; NCI-H2009 (Lung), 72 h
Method: as §1, §2, §3

[32] = tested on: HEC-1-A; conditions: Homo sapiens; HEC-1-A (Endometrium), 72 h
Method: as §1, §2, §3

[33] = tested on: MCF-7; conditions: Homo sapiens, MCF7; MCF-7 (Breast), 72 h
Method: as §1, §2, §3

**Q.** `C#C[C@]1(CO)O[C@@H](n2cnc3c(=O)[nH]c(N)nc32)C[C@@H]1O` [compound 13] was tested. Which IC50 [1] did it give?
**A.** Its IC50 is greater than 10 µM.

**Q.** What about the IC50 [2] of the same compound?
**A.** Its IC50 is greater than 10 µM.

**Q.** And the IC50 [3]?
**A.** The IC50 was greater than 10 µM.

**Q.** What about the IC50 [4] of the same compound?
**A.** Its IC50 is 2.18 µM.

**Q.** What about the IC50 [5] of the same compound?
**A.** Its IC50 is greater than 10 µM.

**Q.** What about the IC50 [6] of the same compound?
**A.** Its IC50 is 2.25 µM.

**Q.** And the IC50 [7]?
**A.** The IC50 was 8.59 µM.

**Q.** And the IC50 [8]?
**A.** The IC50 was greater than 10 µM.

**Q.** And the IC50 [9]?
**A.** The IC50 was 4.07 µM.

**Q.** What about the IC50 [10] of the same compound?
**A.** Its IC50 is 1.13 µM.

**Q.** What about the IC50 [11] of the same compound?
**A.** Its IC50 is 4.41 µM.

**Q.** What about the IC50 [12] of the same compound?
**A.** The IC50 was greater than 10 µM.

**Q.** And the IC50 [13]?
**A.** Its IC50 is greater than 10 µM.

**Q.** What about the IC50 [14] of the same compound?
**A.** Its IC50 is 0.4 µM.

**Q.** What about the IC50 [15] of the same compound?
**A.** Its IC50 is greater than 10 µM.

**Q.** What about the IC50 [16] of the same compound?
**A.** The IC50 was 4.79 µM.

**Q.** What about the IC50 [17] of the same compound?
**A.** The IC50 was 5.84 µM.

**Q.** And the IC50 [18]?
**A.** Its IC50 is greater than 10 µM.

**Q.** And the IC50 [19]?
**A.** The IC50 was 6.78 µM.

**Q.** And the IC50 [20]?
**A.** The IC50 was 8.56 µM.

**Q.** And the IC50 [21]?
**A.** Its IC50 is 2.89 µM.

**Q.** And the IC50 [22]?
**A.** The IC50 was 6.44 µM.

**Q.** What about the IC50 [23] of the same compound?
**A.** Its IC50 is 0.56 µM.

**Q.** And the IC50 [24]?
**A.** Its IC50 is greater than 10 µM.

**Q.** And the IC50 [25]?
**A.** Its IC50 is 4.58 µM.

**Q.** What about the IC50 [26] of the same compound?
**A.** Its IC50 is 5.68 µM.

**Q.** What about the IC50 [27] of the same compound?
**A.** The IC50 was 0.29 µM.

**Q.** And the IC50 [28]?
**A.** The IC50 was 3.41 µM.

**Q.** What about the IC50 [29] of the same compound?
**A.** The IC50 was 5.81 µM.

**Q.** And the IC50 [30]?
**A.** Its IC50 is 6.39 µM.

**Q.** What about the IC50 [31] of the same compound?
**A.** The IC50 was 1.23 µM.

**Q.** What about the IC50 [32] of the same compound?
**A.** Its IC50 is greater than 10 µM.

**Q.** And the IC50 [33]?
**A.** Its IC50 is greater than 10 µM.
